# From patent US11992494B2, “Cyclopentathiophene carboxamide derivatives as platelet activating factor receptor antagonists” (Boehringer Ingelheim International GmbH, priority 2021, dated 2024)
# Molecular target: PAFR (Homo sapiens, UniProt P25105)
# Test: cellular HTRF IP1 assay: inhibition of PAFR activation by PAF C-16 ligand (endpoint assay)
# Format: cell-based
# Set-up: expressed in transfected cells; host or cells: HEK293
# Conditions: HEK293 cells overexpressing human PAFR; PAF ligand 11 nM; Table 2
# Method: The ability of compounds of formula (I) to inhibit the activation of the PAF receptor (PAFR) by the PAF C-16 ligand (PAF) is determined using the following cellular HTRF IP1 assay (IP1 Gq assay kit from Cisbio, Cat. no.: 62IP1APEJ) in assay buffer (1×HBSS, 20 mM Hepes, pH 7.4, 50 mM LiCl and containing 0.1% (w/v) BSA):
# Evaluation of the Inhibition of PAFR Activation Using an Endpoint Assay
# HEK293 cells overexpressing human PAFR (produced in-house) are seeded into a Poly-D-Lysine coated 384 well white cell culture microtiter assay plate with lid (15.000 cells per well). Subsequently, the plates are incubated over night at 37° C./5% CO2. On the next day, cells are being washed and subsequently, various concentrations of the test compounds (compounds in 100% DMSO; final concentration of DMSO in wells is 1%) are added to the assay plate via Echo 555 acoustic liquid handler. Plates are then incubated with lid for 90 minutes at 37° C./5% CO2. Thereafter, PAF ligand (Cayman Chemical Company, Item no.: 60900) is added at a final concentration of 11 nM. Plates are then incubated with lid for 60 minutes at 37° C./5% CO2. Then, 5 μl per well of Anti-IP1-Antibody-Cryptate solution and 5 μl per well of IP1-d2 solution are added to all wells of the plate and the plate is incubated for another 60 minutes light protected at room temperature. The emissions at 620 nm and 665 nm (Excitation wavelength: 320 nm) are measured using an Envision Reader (PerkinElmer).
# PAFR, sequence (P25105 whole entry): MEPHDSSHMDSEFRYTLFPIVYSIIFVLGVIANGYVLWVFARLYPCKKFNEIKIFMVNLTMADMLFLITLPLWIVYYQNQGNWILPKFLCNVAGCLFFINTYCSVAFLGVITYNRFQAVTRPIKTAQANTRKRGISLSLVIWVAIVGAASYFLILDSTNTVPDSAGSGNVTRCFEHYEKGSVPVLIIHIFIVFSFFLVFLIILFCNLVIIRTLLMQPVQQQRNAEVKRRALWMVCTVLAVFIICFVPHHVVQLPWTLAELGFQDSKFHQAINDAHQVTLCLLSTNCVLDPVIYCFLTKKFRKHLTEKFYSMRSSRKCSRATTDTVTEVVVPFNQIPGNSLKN
row,SMILES,IC50
1,"Cc1nnc2n1-c1sc3c(c1C(c1ccccc1Cl)=NC21CC1)C[C@H](C(=O)NC12CC(C1)C2)C3 [Example 1, (13′S)—N-{bicyclo[1.1.1]pentan-1-yl}-9′-(2-chlorophenyl)-3′-methyl-16′-thia-2′,4′,5′,8′-tetraazaspiro[cyclopropane-1,7′-tetracyclo[8.6.0.0^2,6.0^11,15]hexadecane]-1′(10′),3′,5′,8′,11′(15′)-pentaene-13′-carboxamide]",1.3 nM
2,"Cc1nnc2n1-c1sc3c(c1C(c1cc(C#N)ccc1Cl)=NC21CC1)C[C@H](C(=O)N1CCOCC1)C3 [Example 2, 4-chloro-3-[(13′S)-3′-methyl-13′-(morpholine-4-carbonyl)-16′-thia-2′,4′,5′,8′-tetraazaspiro[cyclopropane-1,7′-tetracyclo[8.6.0.0^2,6.0^11,15]hexadecane]-1′(10′),3′,5′,8′,11′(15′)-pentaen-9′-yl]benzonitrile]",83 nM
3,"Cc1nnc2n1-c1sc3c(c1C(c1cc(Cl)ccc1Cl)=NC21CC1)C[C@H](C(=O)N1CCOCC1)C3 [Example 3, (13′S)-9′-(2,5-dichlorophenyl)-3′-methyl-13′-(morpholine-4-carbonyl)-16′-thia-2′,4′,5′,8′-tetraazaspiro[cyclopropane-1,7′-tetracyclo[8.6.0.0^2,6.0^11,15]hexadecane]-1′(10′),3′,5′,8′,11′(15′)-pentaene]",17 nM
4,"Cc1nnc2n1-c1sc3c(c1C(c1cc(Br)ccc1Cl)=NC21CC1)C[C@H](C(=O)N1CCOCC1)C3 [Example 4, (13′S)-9′-(5-bromo-2-chlorophenyl)-3′-methyl-13′-(morpholine-4-carbonyl)-16′-thia-2′,4′,5′,8′-tetraazaspiro[cyclopropane-1,7′-tetracyclo[8.6.0.0^2,6.0^11,15]hexadecane]-1′(10′)3′,5′,8′,11′(15′)-pentaene]",26 nM
5,"Cc1nnc2n1-c1sc3c(c1C(c1cc(N)ccc1Cl)=NC21CC1)C[C@H](C(=O)N1CCOCC1)C3 [Example 6, 4-chloro-3-[(13′S)-3′-methyl-13′-(morpholine-4-carbonyl)-16′-thia-2′,4′,5′,8′-tetraazaspiro[cyclopropane-1,7′-tetracyclo[8.6.0.0^2,6.0^11,15]hexadecane]-1′(10′),3′,5′,8′,11′(15′)-pentaen-9′-yl]aniline]",25 nM
6,"Cc1nnc2n1-c1sc3c(c1C(c1ccccc1Cl)=NC21CC1)C[C@H](C(=O)NC1CCC1)C3 [Example 7, (13′S)-9′-(2-chlorophenyl)-N-cyclobutyl-3′-methyl-16′-thia-2′,4′,5′,8′-tetraazaspiro-[cyclopropane-1,7′-tetracyclo[8.6.0.0^2,6.0^11,15]-hexadecane]-1′(10′),3′,5′,8′,11′(15′)-pentaene-13′-carboxamide]",1.7 nM
7,"Cc1ccccc1C1=NC2(CC2)c2nnc(C)n2-c2sc3c(c21)C[C@H](C(=O)N1CCOCC1)C3 [Example 8, (13′S)-3′-methyl-9′-(2-methylphenyl)-13′-(morpholine-4-carbonyl)-16′-thia-2′,4′,5′,8′-tetraazaspiro[cyclopropane-1,7′-tetracyclo[8.6.0.0^2,6.0^11,15]hexadecane]-1′(10′),3′,5′,8′,11′(15′)-pentaene]",8.4 nM
8,"Cc1nnc2n1-c1sc3c(c1C(c1ccccc1O)=NC21CC1)C[C@H](C(=O)N1CCOCC1)C3 [Example 9, 2-[(13′S)-3′-methyl-13′-(morpholine-4-carbonyl)-16′-thia-2′,4′,5′,8′-tetraazaspiro[cyclopropane-1,7′-tetracyclo[8.6.0.0^2,6.0^11,15]hexadecane]-1′(10′),3′,5′,8′,11′(15′)-pentaen-9′-yl]phenol]",52 nM
9,Cc1nnc2n1-c1sc3c(c1C(c1ccccc1Cl)=NC21CC1)C[C@H](C(=O)N1CCOC(C)(C)C1)C3 [Example 10],5.2 nM
10,Cc1nnc2n1-c1sc3c(c1C(c1ccccc1Cl)=NC21CC1)C[C@H](C(=O)N1CC2CC1C2)C3 [Example 11],3.6 nM
11,Cc1nnc2n1-c1sc3c(c1C(c1ccccc1Cl)=NC21CC1)C[C@H](C(=O)N[C@H]1C[C@@H]1C)C3 [Example 12],2.2 nM
12,Cc1nnc2n1-c1sc3c(c1C(c1ccccc1Cl)=NC21CC1)C[C@H](C(=O)N1C[C@@H](C)O[C@@H](C)C1)C3 [Example 13],4.8 nM
13,Cc1nnc2n1-c1sc3c(c1C(c1ccccc1Cl)=NC21CC1)C[C@H](C(=O)NC1CCCC1)C3 [Example 14],1.9 nM
14,Cc1nnc2n1-c1sc3c(c1C(c1ccccc1Cl)=NC21CC1)C[C@H](C(=O)N[C@H]1CC[C@H](C(F)(F)F)CC1)C3 [Example 15],1 nM
15,Cc1nnc2n1-c1sc3c(c1C(c1ccccc1Cl)=NC21CC1)C[C@H](C(=O)NC1(C(F)(F)F)CC1)C3 [Example 16],4.1 nM
16,Cc1nnc2n1-c1sc3c(c1C(c1ccccc1Cl)=NC21CC1)C[C@H](C(=O)N[C@H]1C[C@@H]1c1ccccc1)C3 [Example 17],1.2 nM
17,Cc1nnc2n1-c1sc3c(c1C(c1ccccc1Cl)=NC21CC1)C[C@H](C(=O)NC1(C)CC1)C3 [Example 18],3.4 nM
18,Cc1nnc2n1-c1sc3c(c1C(c1ccccc1Cl)=NC21CC1)C[C@H](C(=O)NC1[C@H]2CCC[C@@H]12)C3 (some centres unmarked) [Example 19],1.6 nM
19,CCN(C(=O)[C@@H]1Cc2sc3c(c2C1)C(c1ccccc1Cl)=NC1(CC1)c1nnc(C)n1-3)[C@H]1CC[C@H](O)CC1 [Example 20],11 nM
20,Cc1nnc2n1-c1sc3c(c1C(c1ccccc1Cl)=NC21CC1)C[C@H](C(=O)N(C)C1CCC1)C3 [Example 21],1.1 nM
21,Cc1nnc2n1-c1sc3c(c1C(c1ccccc1Cl)=NC21CC1)C[C@H](C(=O)NC1CCc2ccc(F)cc21)C3 (some centres unmarked) [Example 22],0.6 nM
22,Cc1cc2n(n1)CC(NC(=O)[C@@H]1Cc3sc4c(c3C1)C(c1ccccc1Cl)=NC1(CC1)c1nnc(C)n1-4)CC2 (some centres unmarked) [Example 23],9.9 nM

row,SMILES,IC50
1,Cc1nnc2n1-c1sc3c(c1C(c1ccccc1Cl)=NC21CC1)C[C@H](C(=O)N[C@H]1CCC(F)(F)C1)C3 [Example 24],2 nM
2,Cc1nnc2n1-c1sc3c(c1C(c1ccccc1Cl)=NC21CC1)C[C@H](C(=O)NC1CCCC(F)(F)C1)C3 (some centres unmarked) [Example 25],2.3 nM
3,Cc1nnc2n1-c1sc3c(c1C(c1ccccc1Cl)=NC21CC1)C[C@H](C(=O)NC1(C)CCCC1)C3 [Example 26],1.3 nM
4,Cc1nnc2n1-c1sc3c(c1C(c1ccccc1Cl)=NC21CC1)C[C@H](C(=O)NC1CC(F)(F)C1)C3 [Example 27],2.1 nM
5,Cc1nnc2n1-c1sc3c(c1C(c1ccccc1Cl)=NC21CC1)C[C@H](C(=O)N[C@H]1COC[C@H]1C)C3 [Example 28],6.8 nM
6,Cc1nnc2n1-c1sc3c(c1C(c1ccccc1Cl)=NC21CC1)C[C@H](C(=O)N[C@H]1CCCOC1)C3 [Example 29],8.4 nM
7,Cc1nnc2n1-c1sc3c(c1C(c1ccccc1Cl)=NC21CC1)C[C@H](C(=O)N[C@@H]1COC[C@@H]1C)C3 [Example 30],7.2 nM
8,Cc1nnc2n1-c1sc3c(c1C(c1ccccc1Cl)=NC21CC1)C[C@H](C(=O)NC1Cc2ccccc2C1)C3 [Example 31],0.9 nM
9,Cc1nnc2n1-c1sc3c(c1C(c1ccccc1Cl)=NC21CC1)C[C@H](C(=O)N[C@@H]1CCc2ccccc21)C3 [Example 32],1 nM
10,Cc1nnc2n1-c1sc3c(c1C(c1ccccc1Cl)=NC21CC1)C[C@H](C(=O)NC1CCOC(C)(C)C1)C3 (some centres unmarked) [Example 33],11 nM
11,Cc1nnc2n1-c1sc3c(c1C(c1ccccc1Cl)=NC21CC1)C[C@H](C(=O)NC1CCc2ncsc2C1)C3 (some centres unmarked) [Example 34],3.8 nM
12,Cc1nnc2n1-c1sc3c(c1C(c1ccccc1Cl)=NC21CC1)C[C@H](C(=O)NC1(c2ccc(Cl)cn2)CC1)C3 [Example 35],1.6 nM
13,Cc1nnc2n1-c1sc3c(c1C(c1ccccc1Cl)=NC21CC1)C[C@H](C(=O)N[C@H]1CC[C@@H](F)CC1)C3 [Example 36],3.5 nM
14,Cc1nnc2n1-c1sc3c(c1C(c1ccccc1Cl)=NC21CC1)C[C@H](C(=O)N(C)C1CCOCC1)C3 [Example 37],6.6 nM
15,Cc1nnc2n1-c1sc3c(c1C(c1ccccc1Cl)=NC21CC1)C[C@H](C(=O)NC1(C)CCC1)C3 [Example 38],1.6 nM
16,Cc1nnc2n1-c1sc3c(c1C(c1ccccc1Cl)=NC21CC1)C[C@H](C(=O)N[C@H]1COC[C@H]1c1ccccc1)C3 [Example 39],3.1 nM
17,Cc1nnc2n1-c1sc3c(c1C(c1ccccc1Cl)=NC21CC1)C[C@H](C(=O)NC1CC1(C)C)C3 (some centres unmarked) [Example 40],1.9 nM
18,Cc1nnc2n1-c1sc3c(c1C(c1ccccc1Cl)=NC21CC1)C[C@H](C(=O)N(C)[C@@H]1CCCC[C@@H]1O)C3 [Example 41],3.9 nM
19,Cc1nnc2n1-c1sc3c(c1C(c1ccccc1Cl)=NC21CC1)C[C@H](C(=O)NC1CCc2cccnc21)C3 (some centres unmarked) [Example 42],7 nM
20,Cc1nnc2n1-c1sc3c(c1C(c1ccccc1Cl)=NC21CC1)C[C@H](C(=O)NC1COCC(F)(F)C1)C3 (some centres unmarked) [Example 43],3.7 nM
21,Cc1nnc2n1-c1sc3c(c1C(c1ccccc1Cl)=NC21CC1)C[C@H](C(=O)N(C)C1CCCCC1)C3 [Example 44],1.3 nM

# Same assay, conditions: dedicated head-to-head comparison assay run: cyclopropylene vs di-methyl / cyclobutylene analogues
row,SMILES,IC50
1,"Cc1nnc2n1-c1sc3c(c1C(c1ccccc1Cl)=NC21CC1)C[C@H](C(=O)NC1CCC1)C3 [Example 7, (13′S)-9′-(2-chlorophenyl)-N-cyclobutyl-3′-methyl-16′-thia-2′,4′,5′,8′-tetraazaspiro-[cyclopropane-1,7′-tetracyclo[8.6.0.0^2,6.0^11,15]-hexadecane]-1′(10′),3′,5′,8′,11′(15′)-pentaene-13′-carboxamide]",2 nM
